According to paper PMC10544575, “Inhibitory mechanism of vortioxetine on CYP450 enzymes in human and rat liver microsomes” (Frontiers in Pharmacology, 2023):
Entries after “also recorded” stand apart in the source; their conditions may differ. Read-outs that look alike come from different tables or passages of the source.

Tests used:
Assay type in all cases: in vitro ADME
CYP3A4 = CYP3A4 (Homo sapiens, UniProt P08684); test: IC50 of vortioxetine on CYP3A4 (midazolam) in HLMs; design: 0.20 mg/mL HLMs; from tissue; host or cells: human liver microsomes
CYP3A4, sequence (P08684 whole entry): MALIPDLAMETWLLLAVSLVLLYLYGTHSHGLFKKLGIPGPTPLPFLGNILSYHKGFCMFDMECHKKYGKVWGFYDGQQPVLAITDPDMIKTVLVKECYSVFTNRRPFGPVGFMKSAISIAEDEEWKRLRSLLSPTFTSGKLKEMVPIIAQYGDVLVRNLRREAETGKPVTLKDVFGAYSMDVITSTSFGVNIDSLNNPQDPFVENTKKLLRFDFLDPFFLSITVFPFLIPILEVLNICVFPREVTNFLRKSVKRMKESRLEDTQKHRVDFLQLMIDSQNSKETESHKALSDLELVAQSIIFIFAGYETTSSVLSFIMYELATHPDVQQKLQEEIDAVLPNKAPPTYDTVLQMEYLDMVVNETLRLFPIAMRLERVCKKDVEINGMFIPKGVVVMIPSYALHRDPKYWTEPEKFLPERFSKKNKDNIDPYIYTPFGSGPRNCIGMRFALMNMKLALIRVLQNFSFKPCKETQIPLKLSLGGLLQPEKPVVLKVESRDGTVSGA
Experimental: (§1) The components of the incubation system were as follows: 0.20 mg/mL HLMs or 0.20 mg/mL RLMs, 0.1 M Tris-HCl, vortioxetine, and the probe substrates of each enzyme. In the study of Km’s (Michaelis–Menten constant) experiment, midazolam (1, 2, 5, 10, 20, 50 and 100 μM in HLMs and RLMs) corresponded to CYP3A4/3A; bupropion (10, 20, 50, 100, 200, 500, 1,000 and 2000 μM in HLMs; 1, 2, 5, 10, 20, 50, 100 and 200 μM in RLMs) corresponded to CYP2B6/2B; amodiaquine (5, 10, 20, 50, 100 and 200 μM in HLMs; 10, 20, 50, 100, 200, 500 μM in RLMs) corresponded to CYP2C8/CYP2C-1; losartan (1, 2, 5, 10, 20, 50, 100, 200 μM in HLMs; 10, 20, 50, 100, 200, 500 and 1,000 μM in RLMs) corresponded to CYP2C9/CYP2C-2; mephenytoin (20, 50, 100, 200, 500 and 1,000 μM in HLMs; 5, 10, 20, 50, 100, 200, 500 and 1,000 μM in RLMs) corresponded to CYP2C19/CYP2C-3; and dextromethorphan (1, 2, 5, 10, 20, 50 and 100 μM in HLMs and RLMs) corresponded to CYP2D6/CYP2D. […]
(§2) All experiments results were detected by UPLC-MS/MS, which equipped with a Waters Acquity UPLC system (Milford, MA, United States) and a Waters Xevo TQ-S triple quadrupole tandem mass spectrometer with an electrospray ionization source (Milford, MA, United States). […]
(§3) IC50 values and enzyme kinetic parameters were calculated by Graphpad Prism 6.0 (GraphPad software Inc., CA, United States). […] Data for each experiment were expressed as mean ± SD (n = 3).

CYP2C19 = CYP2C19 (Homo sapiens, UniProt P33261); test: Reversible inhibition kinetics (Lineweaver-Burk), CYP2C19 in HLMs; design: 0.20 mg/mL HLMs; from tissue; host or cells: human liver microsomes; conditions: mephenytoin
CYP2C19, sequence (P33261 whole entry): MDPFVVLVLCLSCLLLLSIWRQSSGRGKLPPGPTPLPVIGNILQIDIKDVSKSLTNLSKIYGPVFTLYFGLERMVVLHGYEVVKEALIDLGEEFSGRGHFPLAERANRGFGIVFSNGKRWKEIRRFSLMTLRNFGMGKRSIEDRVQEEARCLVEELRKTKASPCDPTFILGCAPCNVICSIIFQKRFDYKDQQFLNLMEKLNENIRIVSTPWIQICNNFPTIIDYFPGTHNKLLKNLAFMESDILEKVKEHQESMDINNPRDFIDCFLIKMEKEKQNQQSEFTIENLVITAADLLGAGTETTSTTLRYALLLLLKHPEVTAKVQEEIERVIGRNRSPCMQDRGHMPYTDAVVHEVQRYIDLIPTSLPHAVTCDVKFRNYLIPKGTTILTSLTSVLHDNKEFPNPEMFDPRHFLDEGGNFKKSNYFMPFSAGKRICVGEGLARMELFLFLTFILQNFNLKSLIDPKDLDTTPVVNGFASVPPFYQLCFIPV
Experimental: as §1, §2, §3

CYP2C-1 = test: IC50 of vortioxetine on CYP2C-1 (amodiaquine) in RLMs; conditions: rat, rat liver microsomes, probe amodiaquine
Experimental: as §1, §2, §3

CYP2B6 = molecular target: T1, CYP2B6 (Homo sapiens, UniProt P20813); test: IC50 of vortioxetine on CYP2B6 (bupropion) in HLMs; design: 0.20 mg/mL HLMs; from tissue; host or cells: human liver microsomes
T1 sequence (P20813 1-491): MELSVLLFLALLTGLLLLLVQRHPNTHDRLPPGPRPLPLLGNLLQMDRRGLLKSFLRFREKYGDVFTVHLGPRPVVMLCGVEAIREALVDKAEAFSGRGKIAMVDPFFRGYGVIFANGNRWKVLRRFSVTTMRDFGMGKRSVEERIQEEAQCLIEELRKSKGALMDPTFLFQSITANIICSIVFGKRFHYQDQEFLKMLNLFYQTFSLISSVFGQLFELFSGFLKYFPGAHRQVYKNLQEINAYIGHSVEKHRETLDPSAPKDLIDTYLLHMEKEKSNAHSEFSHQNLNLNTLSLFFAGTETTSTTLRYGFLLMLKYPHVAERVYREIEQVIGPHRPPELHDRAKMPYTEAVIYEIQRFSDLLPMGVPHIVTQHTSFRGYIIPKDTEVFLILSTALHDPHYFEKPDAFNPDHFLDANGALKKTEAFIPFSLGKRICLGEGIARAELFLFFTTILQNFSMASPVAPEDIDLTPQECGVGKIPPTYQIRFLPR
Experimental: as §1, §2, §3

[1] = inhibitory effect (strength judged by IC50), HLMs

Cc1ccc(Sc2ccccc2N2CCNCC2)c(C)c1 [vortioxetine]
IC50 (CYP3A4; HLMs 0.20 mg/mL, midazolam at Km, 37°C, 30 min, read-out: IC50): 9.31 µM | IC50 (CYP3A4; [1]): 1 to 10 µM | Ki (CYP2C19): 2170 nM | Inhibition type (CYP2C19; Lineweaver-Burk plot): competitively inhibited; also recorded: competitive inhibition | IC50 at 30 min (CYP2C-1; RLMs 0.20 mg/mL, amodiaquine at Km, 37°C, 30 min, read-out: IC50): 22.2 µM | IC50 at 30 min (CYP2C-1; inhibitory effect (strength judged by IC50), RLMs): > 10 µM | IC50 (CYP2B6; HLMs 0.20 mg/mL, bupropion at Km, 37°C, 30 min, read-out: IC50): 8.94 µM | IC50 (CYP2B6; [1]): 1 to 10 µM
